Source: patent US20190284148A1, “MICROBIOCIDAL OXADIAZOLE DERIVATIVES” (SYNGENTA PARTICIPATIONS AG, priority 2016, published 2019)

Legend:
[1] = system: Glomerella Lagenarium (Colletotrichum Lagenarium); experiment: Glomerella lagenarium (Colletotrichum lagenarium) liquid culture / cucumber / preventative (anthracnose); assay type: cell-based; settings: Colletotrichum orbiculare; 20 ppm in the applied formulation; liquid culture in PDB, 24° C., 3 to 4 days after application; read-out: disease control compared to untreated control (inhibition of growth measured photometrically)
Procedure: Mycelia fragments or conidia suspensions of a fungus prepared either freshly from liquid cultures of the fungus or from cryogenic storage, are directly mixed into nutrient broth. DMSO solutions of the test compound (max. 10 mg/ml) are diluted with 0.025% Tween20 by a factor of 50 and 10 μl of this solution is pipetted into a microtiter plate (96-well format). The nutrient broth containing the fungal spores/mycelia fragments is then added to give an end concentration of the tested compound. The test plates are incubated in the dark at 24° C. and 96% relative humidity. The inhibition of fungal growth is determined photometrically after 2 to 7 days, depending on the pathosystem, and percent antifungal activity relative to the untreated check is calculated.
Conidia of the fungus from cryogenic storage are directly mixed into nutrient broth (PDB—potato dextrose broth). After placing a (DMSO) solution of test compound into a microtiter plate (96-well format), the nutrient broth containing the fungal spores is added. The test plates are incubated at 24° C. and the inhibition of growth is measured photometrically 3 to 4 days after application.
The following compounds at 20 ppm in the applied formulation give at least 80% disease control in this test when compared to untreated control under the same conditions, which show extensive disease development.

[2] = system: Puccinia Recondita f. sp. Tritici; experiment: Puccinia recondita f. sp. tritici / wheat / leaf disc curative (brown rust); assay type: in vivo; settings: foliar, 200 ppm in the applied formulation, wheat leaf segments cv. Kanzler, curative (applied 1 day after inoculation), assessed 6 to 8 days after application, read-out: disease control compared to untreated control leaf disks
Procedure: (§1) Leaf disks or leaf segments of various plant species are cut from plants grown in a greenhouse. The cut leaf disks or segments are placed in multiwell plates (24-well format) onto water agar. The leaf disks are sprayed with a test solution before (preventative) or after (curative) inoculation. Compounds to be tested are prepared as DMSO solutions (max. 10 mg/ml) which are diluted to the appropriate concentration with 0.025% Tween20 just before spraying. The inoculated leaf disks or segments are incubated under defined conditions (temperature, relative humidity, light, etc.) according to the respective test system. A single evaluation of disease level is carried out 3 to 14 days after inoculation, depending on the pathosystem. Percent disease control relative to the untreated check leaf disks or segments is then calculated.
Wheat leaf segments cv. Kanzler are placed on agar in multiwell plates (24-well format). The leaf segments are then inoculated with a spore suspension of the fungus. Plates were stored in darkness at 19° C. and 75% relative humidity. The formulated test compound diluted in water was applied 1 day after inoculation. The leaf segments were incubated at 19° C. and 75% relative humidity under a light regime of 12 hours light/12 hours darkness in a climate cabinet and the activity of a compound was assessed as percent disease control compared to untreated when an appropriate level of disease damage appears in untreated check leaf segments (6 to 8 days after application).
The following compounds at 200 ppm in the applied formulation give at least 80% disease control in this test when compared to untreated control leaf disks under the same conditions, which show extensive disease development.

[3] = system: Puccinia Recondita f. sp. Tritici; experiment: Puccinia recondita f. sp. tritici / wheat / leaf disc preventative (brown rust); assay type: in vivo; settings: foliar, 200 ppm in the applied formulation, wheat leaf segments cv. Kanzler, preventative (inoculated 1 day after application), assessed 7 to 9 days after application, read-out: disease control compared to untreated control leaf disks
Procedure: as §1, with “calculated. Wheat leaf segments cv. Kanzler were placed on agar in multiwell plates (24-well format) and sprayed with the formulated test compound diluted in water. The leaf disks were inoculated with a spore suspension of the fungus 1 day after application. The inoculated leaf segments were incubated at 19° C. and 75% relative humidity (rh) under a light regime of 12 hours light/12 hours darkness in a climate cabinet and the activity of a compound was assessed as percent disease control compared to untreated when an appropriate level of disease damage appears in untreated check leaf segments (7 to 9 days after application). The following compounds at 200 ppm in the applied formulation give at least 80% disease control in this test when compared to untreated control leaf disks under the same conditions, which show extensive disease development.” for “calculated.”

Row | melting point [°C] | Compound | inhibition at 20 ppm [1] [%] | pest or weed control at 200 ppm [2] [%] | pest or weed control at 200 ppm [3] [%]
1 | 120 to 126 | CC(=O)Nc1ccc(-c2noc(C(F)(F)F)n2)cc1F [Compound 1.7, N-[2-fluoro-4-[5-(trifluoromethyl)-1,2,4-oxadiazol-3-yl]phenyl]acetamide] | ≥ 80 | ≥ 80 | ≥ 80
2 | 86 to 91 | CCOC(=O)Nc1ccc(-c2noc(C(F)(F)F)n2)cc1F [Compound 1.9, ethyl N-[2-fluoro-4-[5-(trifluoromethyl)-1,2,4-oxadiazol-3-yl]phenyl]carbamate] | ≥ 80 | ≥ 80 | ≥ 80
